Assay results as given in PubChem BioAssay (NCI).
Several values for one entry are separate records, joined by “and”; a condition that tells them apart may be missing. Equal entries are not always repeated.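 Growth conditions: 96-well plates. Treatment: test compound, 48 hours, 5 concentrations. Analysis: linear interpolation between bracketing concentrations; unreached endpoints set to highest concentration. Abbreviation: GI50, concentration required for 50% inhibition of growth. TGI: total growth inhibition.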

How the values were obtained:
Assay in all cases: NCI tumour cell line growth inhibition, 48 h
786-0 renal = test system: 786-0 renal
A498 renal = test system: A498 renal
A549 NSCLC = test system: A549 NSCLC
ACHN renal = test system: ACHN renal
CAKI-1 renal = test system: CAKI-1 renal
COLO 205 colon = test system: COLO 205 colon
DLD-1 colon = test system: DLD-1 colon
DMS 114 small cell lung = test system: DMS 114 small cell lung
DMS 273 small cell lung = test system: DMS 273 small cell lung
EKVX NSCLC = test system: EKVX NSCLC
HCC-2998 colon = test system: HCC-2998 colon
HCT-116 colon = test system: HCT-116 colon
HCT-15 colon = test system: HCT-15 colon
HOP-18 NSCLC = test system: HOP-18 NSCLC
HOP-62 NSCLC = test system: HOP-62 NSCLC
HT29 colon = test system: HT29 colon
IGROV1 ovarian = test system: IGROV1 ovarian
KM12 colon = test system: KM12 colon
KM20L2 colon = test system: KM20L2 colon
LOX IMVI melanoma = test system: LOX IMVI melanoma
LXFL 529 NSCLC = test system: LXFL 529 NSCLC
M14 melanoma = test system: M14 melanoma
M19-MEL melanoma = test system: M19-MEL melanoma
MALME-3M melanoma = test system: MALME-3M melanoma
NCI-H23 lung = test system: NCI-H23 lung
NCI-H460 lung = test system: NCI-H460 lung
OVCAR-3 ovarian = test system: OVCAR-3 ovarian
OVCAR-4 ovarian = test system: OVCAR-4 ovarian
OVCAR-5 ovarian = test system: OVCAR-5 ovarian
OVCAR-8 ovarian = test system: OVCAR-8 ovarian
RXF 393 renal = test system: RXF 393 renal
RXF-631 renal = test system: RXF-631 renal
SF-268 CNS = test system: SF-268 CNS
SF-295 CNS = test system: SF-295 CNS
SF-539 CNS = test system: SF-539 CNS
SK-MEL-2 melanoma = test system: SK-MEL-2 melanoma
SK-MEL-28 melanoma = test system: SK-MEL-28 melanoma
SK-MEL-5 melanoma = test system: SK-MEL-5 melanoma
SK-OV-3 ovarian = test system: SK-OV-3 ovarian
SN12C renal = test system: SN12C renal
SNB-19 CNS = test system: SNB-19 CNS
SNB-75 CNS = test system: SNB-75 CNS
SNB-78 CNS = test system: SNB-78 CNS
SW-620 colon = test system: SW-620 colon
TK-10 renal = test system: TK-10 renal
U251 CNS = test system: U251 CNS
UACC-257 melanoma = test system: UACC-257 melanoma
UACC-62 melanoma = test system: UACC-62 melanoma
UO-31 renal = test system: UO-31 renal
XF 498 CNS = test system: XF 498 CNS
BT-549 breast = test system: BT-549 breast
CCRF-CEM leukemia = test system: CCRF-CEM leukemia
DU-145 prostate = test system: DU-145 prostate
HL-60(TB) leukemia = test system: HL-60(TB) leukemia
HOP-92 NSCLC = test system: HOP-92 NSCLC
HS 578T breast = test system: HS 578T breast
K-562 leukemia = test system: K-562 leukemia
MCF7 breast = test system: MCF7 breast
MDA-MB-231 breast = test system: MDA-MB-231 breast
MDA-MB-435 = test system: MDA-MB-435
MDA-N = test system: MDA-N
MOLT-4 leukemia = test system: MOLT-4 leukemia
NCI-H226 lung = test system: NCI-H226 lung
NCI-H522 lung = test system: NCI-H522 lung
NCI/ADR-RES ovarian = test system: NCI/ADR-RES ovarian
P388 leukemia = test system: P388 leukemia
P388/ADR leukemia = test system: P388/ADR leukemia
PC-3 prostate = test system: PC-3 prostate
RPMI-8226 leukemia = test system: RPMI-8226 leukemia
SN12K1 renal = test system: SN12K1 renal
SR leukemia = test system: SR leukemia
T-47D breast = test system: T-47D breast

In the case of CN1C(c2ccccc2)CS(=O)(=O)CS1(=O)=O (stereo not given), the TGI (786-0 renal) was greater than 100 µM, the TGI (A498 renal) was greater than 100 µM and the TGI (A549 NSCLC) was greater than 100 µM. The TGI (ACHN renal) was greater than 100 µM, the TGI (CAKI-1 renal) was greater than 100 µM and the TGI (COLO 205 colon) was greater than 100 µM. The TGI (DLD-1 colon) was greater than 100 µM, the TGI (DMS 114 small cell lung) was greater than 100 µM and the TGI (DMS 273 small cell lung) was greater than 100 µM. For the same compound, the TGI (EKVX NSCLC) was greater than 100 µM, the TGI (HCC-2998 colon) was greater than 100 µM and the TGI (HCT-116 colon) was greater than 100 µM. For the same compound, the TGI (HCT-15 colon) was greater than 100 µM, the TGI (HOP-18 NSCLC) was greater than 100 µM and the TGI (HOP-62 NSCLC) was greater than 100 µM. For the same compound, the TGI (HT29 colon) was greater than 100 µM, the TGI (IGROV1 ovarian) was greater than 100 µM and the TGI (KM12 colon) was greater than 100 µM. For the same compound, the TGI (KM20L2 colon) was greater than 100 µM, the TGI (LOX IMVI melanoma) was greater than 100 µM and the TGI (LXFL 529 NSCLC) was greater than 100 µM. For the same compound, the TGI (M14 melanoma) was greater than 100 µM, the TGI (M19-MEL melanoma) was greater than 100 µM and the TGI (MALME-3M melanoma) was greater than 100 µM. The TGI (NCI-H23 lung) was greater than 100 µM, the TGI (NCI-H460 lung) was greater than 100 µM and the TGI (OVCAR-3 ovarian) was 88.7 µM. For the same compound, the TGI (OVCAR-4 ovarian) was greater than 100 µM, the TGI (OVCAR-5 ovarian) was greater than 100 µM and the TGI (OVCAR-8 ovarian) was greater than 100 µM. It also gave a TGI (RXF 393 renal) greater than 100 µM, a TGI (RXF-631 renal) greater than 100 µM and a TGI (SF-268 CNS) greater than 100 µM. For the same compound, the TGI (SF-295 CNS) was greater than 100 µM, the TGI (SF-539 CNS) was greater than 100 µM and the TGI (SK-MEL-2 melanoma) was greater than 100 µM. The TGI (SK-MEL-28 melanoma) was greater than 100 µM, the TGI (SK-MEL-5 melanoma) was greater than 100 µM and the TGI (SK-OV-3 ovarian) was greater than 100 µM. For the same compound, the TGI (SN12C renal) was greater than 100 µM, the TGI (SNB-19 CNS) was greater than 100 µM and the TGI (SNB-75 CNS) was greater than 100 µM. It also gave a TGI (SNB-78 CNS) greater than 100 µM, a TGI (SW-620 colon) greater than 100 µM and a TGI (TK-10 renal) greater than 100 µM. The TGI (U251 CNS) was greater than 100 µM, the TGI (UACC-257 melanoma) was greater than 100 µM and the TGI (UACC-62 melanoma) was greater than 100 µM. The TGI (UO-31 renal) was greater than 100 µM and the TGI (XF 498 CNS) was greater than 100 µM.

With COC1C(O)C(C)OC(OC2C(Oc3cccc4c(O)c5c(=O)oc6ccc(C)c7c(=O)oc(c34)c5c67)OC(C)C(O)C2O)C1O (stereo not given) the TGI (786-0 renal) was 4.57 µM, the GI50 (A498 renal) was 1.22 µM and the TGI (A498 renal) was 4.04 µM and 5.15 µM. The GI50 (A549 NSCLC) was 5.48 µM, the TGI (A549 NSCLC) was 53 µM and 40.4 µM and the TGI (ACHN renal) was 46.1 µM. The TGI (BT-549 breast) was 7.83 µM, the TGI (CCRF-CEM leukemia) was 14.4 µM and 5.06 µM and the GI50 (COLO 205 colon) was 1.74 µM. The TGI (COLO 205 colon) was 16 µM and 6.3 µM, the TGI (DLD-1 colon) was 14.9 µM and the TGI (DMS 114 small cell lung) was 4.03 µM. It also gave a TGI (DMS 273 small cell lung) of 9.1 µM, a TGI (DU-145 prostate) of 53.6 µM and a GI50 (EKVX NSCLC) of 3.81 µM. The TGI (EKVX NSCLC) was 15.2 µM and 4.85 µM, the GI50 (HCC-2998 colon) was 1.1 µM and the TGI (HCC-2998 colon) was 4.56 µM and 7.81 µM. For the same compound, the TGI (HCT-116 colon) was 3.4 µM and 5.71 µM, the TGI (HCT-15 colon) was 63.6 µM and 34 µM and the GI50 (HL-60(TB) leukemia) was 4.08 µM. For the same compound, the TGI (HL-60(TB) leukemia) was 27.4 µM and 6.95 µM, the TGI (HOP-18 NSCLC) was 8.35 µM and the GI50 (HOP-62 NSCLC) was 1.01 µM. The TGI (HOP-62 NSCLC) was 6.38 µM and 5.29 µM, the GI50 (HOP-92 NSCLC) was 2.43 µM and the TGI (HS 578T breast) was 20.4 µM. For the same compound, the GI50 (HT29 colon) was 1.94 µM, the TGI (HT29 colon) was 13.8 µM and the GI50 (IGROV1 ovarian) was 3.08 µM. The TGI (IGROV1 ovarian) was > 69.9 µM and 12.9 µM, the TGI (K-562 leukemia) was 19.3 µM and 8.81 µM and the GI50 (KM12 colon) was 2.17 µM. The TGI (KM12 colon) was 16.6 µM and 8.05 µM, the TGI (KM20L2 colon) was 18.5 µM and the GI50 (LOX IMVI melanoma) was 0.688 µM. For the same compound, the TGI (LOX IMVI melanoma) was 7.55 µM and 10.5 µM, the TGI (M14 melanoma) was 14.8 µM and the TGI (M19-MEL melanoma) was 4.39 µM. For the same compound, the GI50 (MALME-3M melanoma) was 1.83 µM, the TGI (MALME-3M melanoma) was 5.22 µM and 5.75 µM and the GI50 (MCF7 breast) was 1.61 µM. The TGI (MCF7 breast) was 21.6 µM and 6.89 µM, the TGI (MDA-MB-231 breast) was 8.67 µM and the TGI (MDA-MB-435) was 8.29 µM. The TGI (MDA-N) was 6.88 µM, the GI50 (MOLT-4 leukemia) was 0.647 µM and the TGI (MOLT-4 leukemia) was 14.9 µM and 2.23 µM. The GI50 (NCI-H226 lung) was 1.66 µM, the TGI (NCI-H226 lung) was 5.15 µM and 4.17 µM and the GI50 (NCI-H23 lung) was 1.93 µM. The TGI (NCI-H23 lung) was 9.28 µM and 4.6 µM, the TGI (NCI-H460 lung) was 9.07 µM and 13.1 µM and the GI50 (NCI-H522 lung) was 0.747 µM. The TGI (NCI-H522 lung) was 2.74 µM and 3.67 µM, the GI50 (NCI/ADR-RES ovarian) was 26.1 µM and the TGI (NCI/ADR-RES ovarian) was 117 µM. For the same compound, the TGI (OVCAR-3 ovarian) was 10.7 µM and 8.63 µM, the GI50 (OVCAR-4 ovarian) was 11.5 µM and the TGI (OVCAR-4 ovarian) was 35.1 µM and 18.3 µM. The GI50 (OVCAR-5 ovarian) was 6.91 µM, the TGI (OVCAR-5 ovarian) was 30.8 µM and 15.6 µM and the GI50 (OVCAR-8 ovarian) was 1.65 µM. For the same compound, the TGI (OVCAR-8 ovarian) was 52.8 µM and 5.65 µM, the TGI (P388 leukemia) was 3.48 µM and the TGI (P388/ADR leukemia) was 85 µM. For the same compound, the TGI (PC-3 prostate) was 17.8 µM, the GI50 (RPMI-8226 leukemia) was 1.25 µM and the TGI (RPMI-8226 leukemia) was 15.9 µM and 6.88 µM. The GI50 (RXF 393 renal) was 0.536 µM, the TGI (RXF 393 renal) was 2.6 µM and 3.37 µM and the GI50 (SF-268 CNS) was 1.01 µM. For the same compound, the TGI (SF-268 CNS) was 11.1 µM and 12.6 µM, the GI50 (SF-295 CNS) was 1.12 µM and the TGI (SF-295 CNS) was 11.9 µM and 4.21 µM. For the same compound, the GI50 (SF-539 CNS) was 1.19 µM, the TGI (SF-539 CNS) was 5.52 µM and 5.55 µM and the GI50 (SK-MEL-2 melanoma) was 0.695 µM. The TGI (SK-MEL-2 melanoma) was 1.93 µM and 2.56 µM, the GI50 (SK-MEL-28 melanoma) was 1.87 µM and the TGI (SK-MEL-28 melanoma) was 6.85 µM and 4.93 µM. For the same compound, the GI50 (SK-MEL-5 melanoma) was 1.91 µM, the TGI (SK-MEL-5 melanoma) was 6.38 µM and 4.19 µM and the GI50 (SK-OV-3 ovarian) was 3.66 µM. The TGI (SK-OV-3 ovarian) was 17.2 µM and 23.3 µM, the GI50 (SN12C renal) was 1.41 µM and the TGI (SN12C renal) was 7.74 µM and 20.9 µM. For the same compound, the TGI (SN12K1 renal) was 3.5 µM, the GI50 (SNB-19 CNS) was 0.632 µM and 1.21 µM and the TGI (SNB-19 CNS) was 26.6 µM and 14.4 µM. The GI50 (SNB-75 CNS) was 3.15 µM, the TGI (SNB-75 CNS) was 12.6 µM and 7.14 µM and the TGI (SNB-78 CNS) was 19.3 µM. For the same compound, the TGI (SR leukemia) was 6.47 µM, the GI50 (SW-620 colon) was 1.28 µM and the TGI (SW-620 colon) was 63.8 µM and 20.5 µM. For the same compound, the TGI (T-47D breast) was 7.66 µM, the TGI (TK-10 renal) was 21 µM and the GI50 (U251 CNS) was 0.543 µM. The TGI (U251 CNS) was 11.9 µM, the TGI (UACC-257 melanoma) was 5.85 µM and 5.46 µM and the GI50 (UACC-62 melanoma) was 1.35 µM. For the same compound, the TGI (UACC-62 melanoma) was 3.26 µM and 3.56 µM, the TGI (UO-31 renal) was 36.5 µM and 18.9 µM and the TGI (XF 498 CNS) was 3.37 µM.
